From PubChem BioAssay AID330 (DTP/NCI, 2004)
“And” between values parts separate entries of the source, which are not always exact repeats. Identical values can stand only once. Inconclusive results and toxic doses are left out.

Tested on: P388 leukemia ip, CD2F1 mice, survival T/C
Assay: NCI In Vivo Anticancer Drug Screen. Data for tumor model P388 Leukemia (intraperitoneal) in CD2F1 (CDF1) mice
Details: endpoint: median survival time, higher = longer survival
Method in brief: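 Mice carrying the transplanted tumor received test compound or vehicle. Survival was recorded in each group, and the value is the treated-group measurement divided by that of the vehicle-treated control group.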

[1] = dose: 50.0 mg/kg/injection, schedule: Q01DX005 (ip), vehicle: saline with Tween-80
[2] = dose: 100.0 mg/kg/injection, schedule: Q01DX005 (ip), vehicle: saline with Tween-80
[3] = dose: 200.0 mg/kg/injection, schedule: Q01DX005 (ip), vehicle: saline with Tween-80
[4] = dose: 50.0 mg/kg/injection, schedule: Q01DX009 (ip), vehicle: saline
[5] = dose: 100.0 mg/kg/injection, schedule: Q01DX009 (ip), vehicle: saline
[6] = dose: 60.0 mg/kg/injection, schedule: Q01DX005 (ip), vehicle: saline with Tween-80
[7] = dose: 120.0 mg/kg/injection, schedule: Q01DX005 (ip), vehicle: saline with Tween-80
[8] = dose: 240.0 mg/kg/injection, schedule: Q01DX005 (ip), vehicle: saline with Tween-80
[9] = dose: 200.0 mg/kg/injection, schedule: Q01DX009 (ip), vehicle: saline
[10] = dose: 100.0 mg/kg/injection, schedule: Q04DX003 (ip), vehicle: saline with Tween-80
[11] = dose: 200.0 mg/kg/injection, schedule: Q01DX009 (ip), vehicle: saline with Tween-80
[12] = dose: 200.0 mg/kg/injection, schedule: Q04DX003 (ip), vehicle: saline with Tween-80
[13] = dose: 400.0 mg/kg/injection, schedule: Q04DX003 (ip), vehicle: saline with Tween-80
[14] = dose: 50.0 mg/kg/injection, schedule: Q01DX009 (ip), vehicle: saline with Tween-80
[15] = dose: 100.0 mg/kg/injection, schedule: Q01DX009 (ip), vehicle: saline with Tween-80

CC(=O)N[C@@H](Cc1ccc(N(CCCl)CCCl)cc1)C(=O)ON1C(=O)CCC1=O
T/C (dose: 5.8 mg/kg/injection, schedule: Q01DX009 (ip), vehicle: saline): 168 % of control | T/C (dose: 5.8 mg/kg/injection, schedule: Q03HX008 (ip), vehicle: saline): 160 % of control | T/C (dose: 11.6 mg/kg/injection, schedule: Q01DX009 (ip), vehicle: saline): 190 % of control | T/C (dose: 11.6 mg/kg/injection, schedule: Q03HX008 (ip), vehicle: saline): 195 % of control | T/C (dose: 23.2 mg/kg/injection, schedule: Q03HX008 (ip), vehicle: saline): 260 % of control

Cc1ccc(C(O)(c2ccc(C)cc2)C2(O)CCCCC2)cc1
T/C [1]: 109 % of control | T/C [2]: 100 % of control | T/C [3]: 101 % of control

O=C(OCCCCCl)c1ccccc1
T/C (dose: 50.0 mg/kg/injection, schedule: Q01DX009 (ip), vehicle: saline + Tween-80 + alcohol): 104 % of control | T/C (dose: 100.0 mg/kg/injection, schedule: Q01DX009 (ip), vehicle: saline + Tween-80 + alcohol): 104 % of control | T/C (dose: 200.0 mg/kg/injection, schedule: Q01DX009 (ip), vehicle: saline + Tween-80 + alcohol): 110 % of control | T/C (dose: 400.0 mg/kg/injection, schedule: Q01DX009 (ip), vehicle: saline + Tween-80 + alcohol): 112 % of control

O=C1C(Cl)=C(N=Nc2c(Cl)c(O)c3ccccc3c2O)C(=O)c2ccccc21
T/C (dose: 1.56 mg/kg/injection, schedule: Q01DX009 (ip), vehicle: saline): 101 % of control and 111 % of control | T/C (dose: 3.12 mg/kg/injection, schedule: Q01DX009 (ip), vehicle: saline): 103 % of control and 108 % of control | T/C (dose: 6.25 mg/kg/injection, schedule: Q01DX009 (ip), vehicle: saline): 108 % of control and 109 % of control | T/C (dose: 12.5 mg/kg/injection, schedule: Q01DX009 (ip), vehicle: saline): 107 % of control and 117 % of control | T/C (dose: 25.0 mg/kg/injection, schedule: Q01DX009 (ip), vehicle: saline): 102 % of control and 109 % of control | T/C (dose: 25.0 mg/kg/injection, schedule: Q01DX010 (ip), vehicle: saline): 109 % of control | T/C [4]: 90 % of control and 97 % of control | T/C (dose: 50.0 mg/kg/injection, schedule: Q01DX010 (ip), vehicle: saline): 100 % of control | T/C (dose: 100.0 mg/kg/injection, schedule: Q01DX010 (ip), vehicle: saline): 109 % of control

NC1=NC2CC(N1)c1ccc(O)cc1O2 (stereo not drawn)
T/C [4]: 109 % of control | T/C [5]: 110 % of control

CC1OC(=O)/C(=C\N(C)C)C1=O (stereo not drawn)
T/C (dose: 50.0 mg/kg/injection, schedule: Q01DX005 (ip), vehicle: Klucel (hydroxypropylcellulose) (HPC)): 105 % of control | T/C (dose: 100.0 mg/kg/injection, schedule: Q01DX005 (ip), vehicle: Klucel (hydroxypropylcellulose) (HPC)): 111 % of control | T/C (dose: 200.0 mg/kg/injection, schedule: Q01DX005 (ip), vehicle: Klucel (hydroxypropylcellulose) (HPC)): 109 % of control

COc1c(Cl)cc2c(c1OC)N(C)C1N3C(=O)C4(C)SSC3(C(=O)N4C)C(O)C21O (stereo not drawn)
T/C (dose: 0.03 mg/kg/injection, schedule: Q01DX009 (ip), vehicle: Klucel (hydroxypropylcellulose) (HPC)): 100 % of control and 118 % of control | T/C (dose: 0.06 mg/kg/injection, schedule: Q01DX009 (ip), vehicle: Klucel (hydroxypropylcellulose) (HPC)): 89 % of control | T/C (dose: 0.13 mg/kg/injection, schedule: Q01DX009 (ip), vehicle: Klucel (hydroxypropylcellulose) (HPC)): 96 % of control | T/C (dose: 0.5 mg/kg/injection, schedule: Q01DX009 (ip), vehicle: Klucel (hydroxypropylcellulose) (HPC)): 94 % of control

COC(=O)C(CO)Nc1ccccc1 (stereo not drawn)
T/C [6]: 103 % of control | T/C [7]: 99 % of control | T/C [8]: 96 % of control

COC(=O)C1=Cc2c(n3ncnc3n(-c3ccccc3)c2=O)N(S(=O)(=O)c2ccc(C)cc2)CC1
T/C [6]: 93 % of control | T/C [7]: 95 % of control | T/C [8]: 97 % of control

CN1C(=O)NC2(C1=O)C(=O)N(C)C(=O)N2C (stereo not drawn)
T/C [4]: 91 % of control | T/C [5]: 92 % of control | T/C [9]: 95 % of control

CNC(=S)N/N=C(\C)C(C)(C)C
T/C (dose: 25.0 mg/kg/injection, schedule: Q04DX003 (ip), vehicle: saline): 101 % of control | T/C (dose: 50.0 mg/kg/injection, schedule: Q04DX003 (ip), vehicle: saline): 101 % of control | T/C (dose: 100.0 mg/kg/injection, schedule: Q04DX003 (ip), vehicle: saline): 99 % of control and 104 % of control

COc1ccc(-c2c(N)cnc(C)c2C)c(OC)c1OC
T/C (dose: 12.5 mg/kg/injection, schedule: Q01DX009 (ip), vehicle: other): 107 % of control | T/C (dose: 25.0 mg/kg/injection, schedule: Q01DX009 (ip), vehicle: other): 107 % of control | T/C (dose: 50.0 mg/kg/injection, schedule: Q01DX009 (ip), vehicle: other): 99 % of control | T/C (dose: 100.0 mg/kg/injection, schedule: Q01DX009 (ip), vehicle: other): 87 % of control

ClC1(c2ccccc2)c2ccc(Br)cc2-c2cc(Br)ccc21
T/C (dose: 65.0 mg/kg/injection, schedule: Q01DX009 (ip), vehicle: Klucel (hydroxypropylcellulose) (HPC)): 109 % of control | T/C [10]: 118 % of control | T/C [11]: 109 % of control | T/C [12]: 122 % of control | T/C (dose: 400.0 mg/kg/injection, schedule: Q01DX009 (ip), vehicle: saline with Tween-80): 113 % of control | T/C [13]: 118 % of control

N#CCCCCCCCCCCC(=O)O
T/C [5]: 93 % of control | T/C [9]: 91 % of control | T/C (dose: 400.0 mg/kg/injection, schedule: Q01DX009 (ip), vehicle: saline): 94 % of control

O=C1c2ccccc2C(=O)c2c(NCCSCCO)ccc(NCCSCCO)c21
T/C (dose: 16.0 mg/kg/injection, schedule: Q01DX009 (ip), vehicle: Klucel (hydroxypropylcellulose) (HPC)): 92 % of control | T/C (dose: 32.0 mg/kg/injection, schedule: Q01DX009 (ip), vehicle: Klucel (hydroxypropylcellulose) (HPC)): 96 % of control | T/C (dose: 64.0 mg/kg/injection, schedule: Q01DX009 (ip), vehicle: Klucel (hydroxypropylcellulose) (HPC)): 89 % of control | T/C (dose: 128.0 mg/kg/injection, schedule: Q01DX009 (ip), vehicle: Klucel (hydroxypropylcellulose) (HPC)): 86 % of control

CC1(CCl)CC1(Cl)Cl (stereo not drawn)
T/C (dose: 50.0 mg/kg/injection, schedule: Q01DX005 (ip), vehicle: saline): 103 % of control | T/C (dose: 100.0 mg/kg/injection, schedule: Q01DX005 (ip), vehicle: saline): 103 % of control | T/C (dose: 200.0 mg/kg/injection, schedule: Q01DX005 (ip), vehicle: saline): 104 % of control

O=C(CN1CCCCC1)Nc1ccc(I)cc1
T/C [14]: 104 % of control | T/C [15]: 107 % of control | T/C [11]: 114 % of control

CC[C@]1(O)CN2CCc3c([nH]c4ccccc34)[C@@](C(=O)OC)(c3cc4c(cc3OC)N(C)[C@H]3[C@@](O)(C(=O)OC)[C@H](OC(C)=O)[C@]5(CC)C=CCN6CC[C@]43[C@@H]65)C[C@H](C2=O)[C@H]1O
T/C (dose: 4.0 mg/kg/injection, schedule: Q01DX001 (ip), vehicle: water): 115 % of control | T/C (dose: 8.0 mg/kg/injection, schedule: Q01DX001 (ip), vehicle: water): 117 % of control | T/C (dose: 16.0 mg/kg/injection, schedule: Q01DX001 (ip), vehicle: water): 115 % of control and 124 % of control | T/C (dose: 128.0 mg/kg/injection, schedule: Q01DX001 (ip), vehicle: water): 150 % of control

Nc1ncnc2c1ncn2CCOCC(O)CO (stereo not drawn)
T/C [6]: 100 % of control | T/C [7]: 95 % of control | T/C [8]: 93 % of control

ClCCN(CCCl)c1ccc2c3c(cccc13)-c1ccccc1-2
T/C (dose: 25.0 mg/kg/injection, schedule: Q04DX003 (ip), vehicle: saline with Tween-80): 104 % of control | T/C [14]: 154 % of control | T/C [15]: 186 % of control | T/C (dose: 132.0 mg/kg/injection, schedule: Q04DX003 (ip), vehicle: saline with Tween-80): 159 % of control | T/C [11]: 86 % of control | T/C [12]: 177 % of control and 212 % of control | T/C (dose: 300.0 mg/kg/injection, schedule: Q04DX003 (ip), vehicle: saline with Tween-80): 177 % of control

Cc1ccc(C)n1-c1ccsc1C(=O)NNC(=O)C(Cl)Cl
T/C (dose: 7.5 mg/kg/injection, schedule: Q01DX005 (ip), vehicle: Klucel (hydroxypropylcellulose) (HPC)): 100 % of control | T/C (dose: 15.0 mg/kg/injection, schedule: Q01DX005 (ip), vehicle: Klucel (hydroxypropylcellulose) (HPC)): 106 % of control | T/C (dose: 30.0 mg/kg/injection, schedule: Q01DX005 (ip), vehicle: Klucel (hydroxypropylcellulose) (HPC)): 99 % of control

Cc1ccc(Cl)cc1N=Cc1ccccc1O
T/C [10]: 100 % of control | T/C [12]: 95 % of control | T/C [13]: 100 % of control

O=C(CSc1nccc(=O)[nH]1)c1ccccc1
T/C [1]: 103 % of control | T/C [2]: 103 % of control | T/C [3]: 100 % of control
